Columns and labels:
Oryctolagus cuniculus = species: Oryctolagus cuniculus; assay: Selectivity ratio of IC50 for inhibition of SOAT2 in New Zealand white rabbit intestinal microsomes to IC50 for inhibition of SOAT1 in arterial homogenates isolated from 1% cholesterol fed New Zealand white rabbit
[1] = molecular target: T1, Sterol O-acyltransferase 1 (Mus musculus, UniProt Q61263); assay: Inhibition of ACAT1 in mouse J774 cells assessed as reduction in esterified cholesterol accumulation after 18 hrs in presence of 25-hydroxycholesterol; type: cell-based
T1 sequence (Q61263 whole entry): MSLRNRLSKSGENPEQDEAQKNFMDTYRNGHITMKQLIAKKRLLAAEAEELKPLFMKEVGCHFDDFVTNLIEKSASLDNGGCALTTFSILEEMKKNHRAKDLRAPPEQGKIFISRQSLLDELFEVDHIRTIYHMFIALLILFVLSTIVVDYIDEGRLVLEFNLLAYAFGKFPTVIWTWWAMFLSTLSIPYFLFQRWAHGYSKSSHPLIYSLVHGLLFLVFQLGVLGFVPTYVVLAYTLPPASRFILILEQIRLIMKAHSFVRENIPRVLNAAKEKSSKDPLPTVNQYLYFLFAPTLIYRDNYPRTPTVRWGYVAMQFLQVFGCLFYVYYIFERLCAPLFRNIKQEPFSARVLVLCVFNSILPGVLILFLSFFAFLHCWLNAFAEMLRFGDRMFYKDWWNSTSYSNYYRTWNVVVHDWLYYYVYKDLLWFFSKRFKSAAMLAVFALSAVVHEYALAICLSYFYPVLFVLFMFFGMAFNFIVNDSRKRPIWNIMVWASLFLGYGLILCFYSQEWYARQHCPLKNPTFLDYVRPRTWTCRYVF

[2] = Inhibition of SOAT2 in New Zealand white rabbit intestinal microsomes assessed as reduction in cholesteryl oleate formation incubated for 5 mins in presence of [14C]-oleoyl-CoA and BSA complex by TLC method; parameters: species or system Oryctolagus cuniculus, Intestine
[3] = Inhibition of SOAT1 in arterial homogenates isolated from 1% cholesterol fed New Zealand white rabbit assessed as reduction in cholesteryl oleate formation incubated for 5 mins in presence of [14C]-oleoyl-CoA and BSA complex by TLC method; type: tissue-based, Oryctolagus cuniculus

SMILES	Ratio IC50 (Oryctolagus cuniculus)	IC50 [1] [µM]	IC50 [2] [µM]	IC50 [3] [µM]
CC(C)c1cccc(C(C)C)c1NC(=O)CSc1nc2ccccc2[nH]1	2.5	0.18	5.8	2.3
CC(C)c1cccc(C(C)C)c1NC(=O)CCCCCSc1nc2ccc(N(C)C)cc2o1	6.3	1.1	0.094	0.015
CC(C)c1cccc(C(C)C)c1NC(=O)CCCCCSc1nc2cccnc2o1	1.5	3	0.036	0.024
CSc1nc2ccccc2o1				31
CC(C)c1cccc(C(C)C)c1NC(=O)CCCCCSc1nc2c(CN(C)C)cccc2o1	7.6		0.32	0.042
CC(C)c1cccc(C(C)C)c1NC(=O)CCCCCSc1nc2cccc(CN(C)C)c2o1	1.4	5.6	0.13	0.096
CC(C)c1cccc(C(C)C)c1NC(=O)CCCCCCCCCCCCCCSc1nc2ccccc2s1	1.1	1.8	0.093	0.088
CC(C)c1cccc(C(C)C)c1NC(=O)CCCSc1nc2ccccc2o1		2.8		0.036
CC(C)c1cccc(C(C)C)c1NC(=O)CCCCCCCSc1nc2ccccc2o1	5.5	0.04	0.022	0.004
CC(C)c1cccc(C(C)C)c1NC(=O)CCSc1nc2ccccc2s1	4.8	0.28	0.019	0.004
CC(C)c1cccc(C(C)C)c1NC(=O)CCCCCCCCCSc1nc2ccccc2s1	2.2	0.57	0.011	0.005
CC(C)c1cccc(C(C)C)c1NC(=O)CCCCCSc1nc2c(N(C)C)cccc2o1	4.1	0.5	0.12	0.029
CC(C)c1cccc(C(C)C)c1NC(=O)CCCCCSc1nc2ccc(C(=O)O)cc2o1	2.4	4.4	5	2.1
Cc1ccc2nc(SCCCCCC(=O)Nc3c(C(C)C)cccc3C(C)C)oc2c1	3.2	0.4	0.11	0.034
COC(=O)c1cccc2nc(SCCCCCC(=O)Nc3c(C(C)C)cccc3C(C)C)oc12	10.3	0.1	0.33	0.032
CC(C)c1cccc(C(C)C)c1NC(=O)CCCCCSc1nc2c(C(=O)O)cccc2o1		11		
CC(C)c1cccc(C(C)C)c1NC(=O)CCCCSc1nc2ccccc2s1	2.1	57	0.13	0.062
CC(C)c1cccc(C(C)C)c1NC(=O)CCCCCCSc1nc2ccccc2o1	6		0.03	0.005
CC(C)c1cccc(C(C)C)c1NC(=O)CCCCCSc1nc2c(O)cccc2o1	1	8.8	0.24	0.24
CC(C)c1cccc(C(C)C)c1NC(=O)CCCCCSc1nc2cc(CO)ccc2o1	1.2	1.1	0.074	0.064
CC(C)c1cccc(C(C)C)c1NC(=O)CCCCCSc1nc2ccc(O)cc2o1	1.5	2.3	0.081	0.053
CC(C)c1cccc(C(C)C)c1NC(=O)CCCCCSc1nc2cc(C(F)(F)F)ccc2o1	5	0.1	0.14	0.028
CC(C)c1cccc(C(C)C)c1NC(=O)CCCCCCSc1nc2ccccc2s1	4	0.41	0.028	0.007
COC(=O)c1ccc2nc(SCCCCCC(=O)Nc3c(C(C)C)cccc3C(C)C)oc2c1	3.8	0.5	0.11	0.029
CC(C)c1cccc(C(C)C)c1NC(=O)CCCCCSc1nc2cc(CN(C)C)ccc2o1	0.7	1.8	0.17	0.25
CC(C)c1cccc(C(C)C)c1NC(=O)CCCCCSc1nc2ccc(CO)cc2o1	2.4	7	0.18	0.076
CC(C)c1cccc(C(C)C)c1NC(=O)CCCCCCSc1nc2ccccc2[nH]1	1.4	0.048	0.034	0.024
CC(C)c1cccc(C(C)C)c1NC(=O)CCCCCSc1nc2ncccc2o1			0.14	0.025

— ChEMBL document CHEMBL4229418, “Design, synthesis and pharmacology of aortic-selective acyl-CoA: Cholesterol O-acyltransferase (ACAT/SOAT) inhibitors” (Bioorg Med Chem, 2018)
